Values quoted from earlier work in US20210267985A1, “COMPOSITIONS AND METHODS FOR INDUCING ENHANCED BRAIN FUNCTION” (priority 2020, published 2021).

Conditions: in vivo

## Cn1c(=O)c2c(ncn2C)n(C)c1=O [caffeine]
  half-life: 4 to 6 h
